Columns and labels:
Details in all cases: substrate uM: Ia 2, AMMC 20, CEC 40, MFC 50, BFC 50, BQ 40, BzRes 50; 30 min; enzyme 50 nM
[1] = target: T1, Rat CYP2D1 (Rattus norvegicus, UniProt P10633); test: Turnover of fluorometric substrates by rat CYP2D1
T1 sequence (P10633 1-504): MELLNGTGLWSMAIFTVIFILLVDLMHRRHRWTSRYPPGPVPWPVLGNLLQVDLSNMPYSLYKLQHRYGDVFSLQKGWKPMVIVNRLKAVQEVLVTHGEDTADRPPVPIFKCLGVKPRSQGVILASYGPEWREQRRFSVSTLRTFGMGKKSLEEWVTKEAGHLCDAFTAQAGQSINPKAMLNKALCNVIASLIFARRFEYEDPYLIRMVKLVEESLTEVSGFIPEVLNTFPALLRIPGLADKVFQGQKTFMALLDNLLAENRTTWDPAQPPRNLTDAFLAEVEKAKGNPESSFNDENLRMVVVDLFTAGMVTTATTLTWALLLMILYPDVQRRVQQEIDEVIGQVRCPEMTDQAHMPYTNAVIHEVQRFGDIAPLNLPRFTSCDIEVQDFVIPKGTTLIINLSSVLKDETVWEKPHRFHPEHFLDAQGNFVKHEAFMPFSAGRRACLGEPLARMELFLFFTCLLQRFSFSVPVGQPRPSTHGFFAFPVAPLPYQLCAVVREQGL

[2] = target: T2, Rat CYP3A1 (Rattus norvegicus, UniProt P04800); test: Turnover of fluorometric substrates by rat CYP3A1
T2 sequence (P04800 1-504): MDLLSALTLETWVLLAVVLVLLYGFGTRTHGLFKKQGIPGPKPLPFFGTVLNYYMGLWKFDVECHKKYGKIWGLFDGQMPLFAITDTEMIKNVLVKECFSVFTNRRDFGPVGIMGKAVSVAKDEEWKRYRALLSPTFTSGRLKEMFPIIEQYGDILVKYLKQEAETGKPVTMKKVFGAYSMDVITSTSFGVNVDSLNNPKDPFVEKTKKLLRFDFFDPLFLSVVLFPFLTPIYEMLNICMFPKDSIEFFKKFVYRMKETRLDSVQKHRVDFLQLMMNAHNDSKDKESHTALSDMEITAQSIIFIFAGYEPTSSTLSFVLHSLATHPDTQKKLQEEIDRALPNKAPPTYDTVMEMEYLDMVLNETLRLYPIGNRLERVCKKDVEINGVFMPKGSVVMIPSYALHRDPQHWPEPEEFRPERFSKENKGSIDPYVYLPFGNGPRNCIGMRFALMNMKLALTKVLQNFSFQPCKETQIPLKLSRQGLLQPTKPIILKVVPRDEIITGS

[3] = target: T3, Rat CYP3A2 (Rattus norvegicus, UniProt P05183); test: Turnover of fluorometric substrates by rat CYP3A2
T3 sequence (P05183 1-504): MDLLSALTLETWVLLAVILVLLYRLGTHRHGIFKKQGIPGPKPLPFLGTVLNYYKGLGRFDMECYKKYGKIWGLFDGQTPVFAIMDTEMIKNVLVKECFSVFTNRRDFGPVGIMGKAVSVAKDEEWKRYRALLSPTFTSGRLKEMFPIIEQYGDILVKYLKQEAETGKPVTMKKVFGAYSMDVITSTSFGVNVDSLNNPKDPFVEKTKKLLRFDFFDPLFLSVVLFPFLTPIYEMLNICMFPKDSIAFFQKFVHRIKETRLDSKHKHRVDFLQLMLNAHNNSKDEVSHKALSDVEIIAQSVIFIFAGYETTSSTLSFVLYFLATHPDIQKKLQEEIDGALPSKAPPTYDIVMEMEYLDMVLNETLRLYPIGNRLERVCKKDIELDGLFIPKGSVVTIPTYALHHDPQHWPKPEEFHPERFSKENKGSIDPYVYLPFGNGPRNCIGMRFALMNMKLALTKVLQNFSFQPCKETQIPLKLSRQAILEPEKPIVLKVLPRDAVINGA

[4] = target: Rat CYP2A2 (Rattus norvegicus, UniProt P15149); test: Turnover of fluorometric substrates by rat CYP2A2
Sequence of Rat CYP2A2 (P15149 whole entry): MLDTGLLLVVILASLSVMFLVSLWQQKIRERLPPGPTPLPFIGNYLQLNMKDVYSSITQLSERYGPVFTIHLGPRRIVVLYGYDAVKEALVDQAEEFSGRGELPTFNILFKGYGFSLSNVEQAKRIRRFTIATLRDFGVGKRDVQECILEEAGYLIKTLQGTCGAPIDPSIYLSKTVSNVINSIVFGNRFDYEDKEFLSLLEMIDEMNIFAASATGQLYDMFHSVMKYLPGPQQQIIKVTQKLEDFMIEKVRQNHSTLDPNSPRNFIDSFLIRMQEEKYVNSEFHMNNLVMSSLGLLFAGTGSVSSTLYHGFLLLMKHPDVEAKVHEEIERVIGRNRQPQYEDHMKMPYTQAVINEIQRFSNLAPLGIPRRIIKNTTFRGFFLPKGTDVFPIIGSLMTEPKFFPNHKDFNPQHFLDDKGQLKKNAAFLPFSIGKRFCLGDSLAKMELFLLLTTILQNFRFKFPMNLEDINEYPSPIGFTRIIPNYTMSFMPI

[5] = target: T4, Rat CYP2C13 (Rattus norvegicus, UniProt P20814); test: Turnover of fluorometric substrates by rat CYP2C13
T4 sequence (P20814 1-490): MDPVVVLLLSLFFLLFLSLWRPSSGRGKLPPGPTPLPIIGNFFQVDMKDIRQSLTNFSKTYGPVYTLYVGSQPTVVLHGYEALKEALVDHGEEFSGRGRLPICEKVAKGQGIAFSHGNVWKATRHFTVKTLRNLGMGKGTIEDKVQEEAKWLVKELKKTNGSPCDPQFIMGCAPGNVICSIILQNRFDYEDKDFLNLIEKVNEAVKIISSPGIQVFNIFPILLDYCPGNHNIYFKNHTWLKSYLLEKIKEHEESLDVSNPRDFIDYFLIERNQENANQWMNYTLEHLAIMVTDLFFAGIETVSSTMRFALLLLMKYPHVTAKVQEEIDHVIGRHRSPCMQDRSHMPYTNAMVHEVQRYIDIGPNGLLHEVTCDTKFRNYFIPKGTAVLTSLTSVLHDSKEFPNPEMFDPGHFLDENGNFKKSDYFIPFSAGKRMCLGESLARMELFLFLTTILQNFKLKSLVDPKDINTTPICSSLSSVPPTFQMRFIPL

[6] = target: T5, Rat CYP2B1 (Rattus norvegicus, UniProt P00176); test: Turnover of fluorometric substrates by rat CYP2B1
T5 sequence (P00176 1-491): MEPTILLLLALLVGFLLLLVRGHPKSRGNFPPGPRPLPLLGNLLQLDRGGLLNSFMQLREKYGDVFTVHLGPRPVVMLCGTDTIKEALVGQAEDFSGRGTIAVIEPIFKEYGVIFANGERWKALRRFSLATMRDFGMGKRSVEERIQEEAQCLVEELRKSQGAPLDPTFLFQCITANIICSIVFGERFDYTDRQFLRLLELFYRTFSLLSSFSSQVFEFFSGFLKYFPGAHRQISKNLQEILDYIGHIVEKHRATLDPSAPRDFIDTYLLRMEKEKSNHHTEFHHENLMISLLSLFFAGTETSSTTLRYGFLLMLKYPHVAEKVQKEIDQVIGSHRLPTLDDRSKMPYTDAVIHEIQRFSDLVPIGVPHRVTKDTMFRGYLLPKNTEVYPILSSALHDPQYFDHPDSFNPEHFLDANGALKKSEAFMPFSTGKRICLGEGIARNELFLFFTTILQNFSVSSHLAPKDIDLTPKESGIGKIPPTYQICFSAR

SMILES	Turnover Numbers, CYP2D1 [1]	Turnover Numbers, CYP3A1 [2]	Turnover Numbers, CYP3A2 [3]	Turnover Numbers, CYP2A2 [4]	Turnover Numbers, CYP2C13 [5]	Turnover Numbers, CYP2B1 [6]
O=c1ccc2nc3ccc(OCc4ccccc4)cc3oc-2c1 [BzRes, 7-benzyloxyresorufin]	0.02 pmol product/min/pmol enzyme	0.06 pmol product/min/pmol enzyme	0.09 pmol product/min/pmol enzyme	–	0.01 pmol product/min/pmol enzyme	0.82 pmol product/min/pmol enzyme
CCOc1ccc2cc(C#N)c(=O)oc2c1 [CEC, 7-Ethoxy-3-cyanocoumarin]	–	0.08 pmol product/min/pmol enzyme	0.15 pmol product/min/pmol enzyme	0.04 pmol product/min/pmol enzyme	–	0.45 pmol product/min/pmol enzyme

More lines, now with the values ahead:

Turnover Numbers, CYP2D1 [1]	Turnover Numbers, CYP3A1 [2]	Turnover Numbers, CYP3A2 [3]	Turnover Numbers, CYP2A2 [4]	Turnover Numbers, CYP2C13 [5]	Turnover Numbers, CYP2B1 [6]	SMILES
0.159 pmol product/min/pmol enzyme	0.027 pmol product/min/pmol enzyme	0.015 pmol product/min/pmol enzyme	0.030 pmol product/min/pmol enzyme	0.003 pmol product/min/pmol enzyme	–	O=C(OCc1ccccc1)c1ccccc1-c1c2ccc(=O)cc-2oc2cc(OCc3ccccc3)ccc12 [Compound Ia, O-Benzylfluorescein Benzyl Ester]
0.25 pmol product/min/pmol enzyme	1.33 pmol product/min/pmol enzyme	1.04 pmol product/min/pmol enzyme	0.26 pmol product/min/pmol enzyme	0.74 pmol product/min/pmol enzyme	3.70 pmol product/min/pmol enzyme	O=c1cc(C(F)(F)F)c2ccc(OCc3ccccc3)cc2o1 [BFC, 7-Benzyloxy-4-trifluoromethylcoumarin]
0.09 pmol product/min/pmol enzyme	–	–	0.08 pmol product/min/pmol enzyme	0.21 pmol product/min/pmol enzyme	2.82 pmol product/min/pmol enzyme	COc1ccc2c(C(F)(F)F)cc(=O)oc2c1 [MFC, 7-Methoxy-4-trifluoromethylcoumarin]
5.3 pmol product/min/pmol enzyme	8.4 pmol product/min/pmol enzyme	9.8 pmol product/min/pmol enzyme	2.8 pmol product/min/pmol enzyme	–	2.5 pmol product/min/pmol enzyme	c1ccc(COc2ccc3cccnc3c2)cc1 [BQ, 7-Benzyloxyquinoline]

Reference: patent US6420131B1, “Use of fluorescein aryl ethers in high throughput cytochrome P450 inhibition assays” (Gentest Corporation, priority 1999, dated 2002)
